From patent EP4610269A1, “UROKINASE PLASMINOGEN ACTIVATOR SURFACE RECEPTOR (UPAR) LIGANDS FOR DIAGNOSTIC OR THERAPEUTIC USE” (3B Pharmaceuticals GmbH, priority 2024, dated 2025) come the findings set out here.

Experiment [1] deals with T1, uPAR-expressing HEC-265 human endometrial adenocarcinoma cells (Homo sapiens, UniProt Q03405).
T1 construct: Cell surface uPAR-expressing HEC-265 human endometrial adenocarcinoma cells; host or cells: HEC-265
In words: Competitive FACS binding assay. To be noted: pIC50 category of FACS binding. The gist of the method:
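HEC-265 cells incubated 1 h at 4 °C with 10 nM biotinylated uPAR peptide tracer plus increasing test compound, then stained with APC-streptavidin on ice. Median APC fluorescence by flow cytometry; 4PL fit gives pIC50.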
A general note: Flow cytometry measures light scatter and fluorescence of single cells or particles in a stream.

The next experiment concerns the target T2, human uPAR (uPAR-Fc) (Homo sapiens, UniProt Q03405).
T2 construct: comprising amino acids Leu23-Arg303 according to UniProt entry Q03405.1; purchased R&D Systems 10378-UK-100
In words: Surface plasmon resonance (SPR) assay, single cycle kinetics. In kind it is binding. The settings on record: pKD category for uPAR SPR activity assay; uPAR-Fc on Protein A-Chip, 25°C; read-out: pKD CAT (converted). The gist of the method: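 uPAR-Fc (Leu23-Arg303 extracellular domains, human IgG1 Fc) captured on Protein A chip to ~2000 RU; single-cycle kinetics at 25°C in HEPES running buffer pH 7.4 with 0.1% DMSO. KD from double-referenced sensorgrams fitted to 1:1 Langmuir model, reported as pKD.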
For orientation: In SPR one partner is held on a chip, and binding of the other changes the refractive index at the surface.

*1 amine or outer side, *2 acyl side, *3 side chain or, on linkers, in order; H or OH if unused. Where a SMILES comes first, the peptide text is derived from it. Bridges are numbered along the chain shown (N, C = ends). [ ]: non-standard residue; d: D form. The star is where a group is joined. DOTA = O=C(O)CN1CCN(CC(=O)O)CCN(CC(=O)*)CCN(CC(=O)O)CC1; Phe(2,4-Cl2) = N[C@@H](Cc1ccc(Cl)cc1Cl)C(=O)O; Phe(4-Cl) = N[C@@H](Cc1ccc(Cl)cc1)C(=O)O; Pro(cis-4-F) = O=C(O)[C@@H]1C[C@H](F)CN1; Phe(4-NH2) = Nc1ccc(C[C@H](N)C(=O)O)cc1; Pro(4R-NH2) = N[C@H]1CN[C@H](C(=O)O)C1; 1Nal = N[C@@H](Cc1cccc2ccccc12)C(=O)O; Hyp = O=C(O)[C@@H]1C[C@@H](O)CN1; Pentanoyl(4-Me) = CC(C)CCC(=O)*; Cit = NC(=O)NCCC[C@H](N)C(=O)O; NMeL = CN[C@@H](CC(C)C)C(=O)O; Butoxycarbonyl = CCCCOC(=O)*; Suc = O=C(CCC(=O)[*:2])[*:1]; hCys = N[C@@H](CCS)C(=O)O; Nva = CCC[C@H](N)C(=O)O; Pentanoyl = CCCCC(=O)*; Aib = CC(C)(N)C(=O)O

T1 sequence (Q03405 23-335): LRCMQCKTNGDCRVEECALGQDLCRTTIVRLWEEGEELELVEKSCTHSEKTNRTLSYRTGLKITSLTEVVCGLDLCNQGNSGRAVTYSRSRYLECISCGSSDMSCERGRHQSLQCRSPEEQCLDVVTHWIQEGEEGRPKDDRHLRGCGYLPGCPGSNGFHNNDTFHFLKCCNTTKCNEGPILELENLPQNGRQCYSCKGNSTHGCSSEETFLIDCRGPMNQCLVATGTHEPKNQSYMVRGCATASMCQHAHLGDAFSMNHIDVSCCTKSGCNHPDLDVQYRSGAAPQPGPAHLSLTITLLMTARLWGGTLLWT
T2 sequence (Q03405 23-303): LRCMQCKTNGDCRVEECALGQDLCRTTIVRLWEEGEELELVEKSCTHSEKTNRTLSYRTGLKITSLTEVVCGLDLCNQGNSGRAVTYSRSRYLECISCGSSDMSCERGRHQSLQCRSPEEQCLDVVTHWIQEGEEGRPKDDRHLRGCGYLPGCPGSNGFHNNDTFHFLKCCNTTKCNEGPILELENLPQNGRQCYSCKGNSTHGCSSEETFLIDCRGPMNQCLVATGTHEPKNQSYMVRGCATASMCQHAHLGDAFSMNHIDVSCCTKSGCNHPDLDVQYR

As a reminder, the IC50 is the point on the concentration scale where inhibition reaches its midpoint. Read a low IC50 as greater potency. In experiment [1], `CCC[C@H](NC(=O)CCC(=O)O)C(=O)N[C@H]1CSSC[C@@H](C(N)=O)NC(=O)[C@H](CCC)NC(=O)[C@H]([C@@H](C)CC)NC(=O)[C@@H]2C[C@@H](O)CN2C(=O)[C@@H]2CCCN2C(=O)[C@H](Cc2ccccc2)NC(=O)[C@H](Cc2ccc(O)cc2)NC(=O)[C@H](CCCCNC(=O)CN2CCN(CC(=O)O)CCN(CC(=O)O)CCN(CC(=O)O)CC2)NC(=O)[C@H]([C@@H](C)O)NC1=O` [UPAR-297, Succinyl-Nva-[Cys-Thr-Lys(DOTA)-Tyr-Phe-Pro-Hyp-Ile-Nva-Cys]-NH2] (Suc-[Nva]CTK(DOTA)YFP[Hyp]I[Nva]C-NH2; disulfide 2-11) gave a half-maximal inhibitory concentration (IC50) of at most 10 nM. Also, the Kd at human uPAR (uPAR-Fc) is below 1.58 nM.
In the same order, the values of `CCCCC(=O)N[C@H]1CSSC[C@@H](C(N)=O)NC(=O)[C@H](CCC)NC(=O)[C@H]([C@@H](C)CC)NC(=O)[C@@H]2C[C@@H](O)CN2C(=O)[C@H](CCCCN)NC(=O)[C@H](Cc2ccccc2)NC(=O)[C@H](Cc2ccc(O)cc2)NC(=O)[C@H](CCC(N)=O)NC(=O)[C@H](CCCNC(=N)N)NC1=O` [UPAR-298, Pent-[Cys-Arg-Gln-Tyr-Phe-Lys-Hyp-Ile-Nva-Cys]-NH2] (Pentanoyl-CRQYFK[Hyp]I[Nva]C-NH2; disulfide 1-10) are 39.8 to 100 nM and 10 to 100 nM.
In turn, `CCCCC(=O)N[C@H]1CSSC[C@@H](C(N)=O)NC(=O)[C@H](CCC)NC(=O)[C@H]([C@@H](C)CC)NC(=O)C(C)(C)NC(=O)[C@@H]2CCCN2C(=O)[C@H](Cc2ccccc2)NC(=O)[C@H](Cc2ccc(O)cc2)NC(=O)[C@H](CCCCNC(=O)CN2CCN(CC(=O)O)CCN(CC(=O)O)CCN(CC(=O)O)CC2)NC(=O)[C@H](CCCNC(N)=O)NC1=O` [UPAR-299, Pent-[Cys-Cit-Lys(DOTA)-Tyr-Phe-Pro-Aib-Ile-Nva-Cys]-NH2] (Pentanoyl-C[Cit]K(DOTA)YFP[Aib]I[Nva]C-NH2; disulfide 1-10) gave an IC50 in experiment [1] of at most 10 nM. Besides, on human uPAR (uPAR-Fc), the Kd was below 1.58 nM.
Compound `CCCCC(=O)N[C@H]1CCSSC[C@@H](C(N)=O)NC(=O)[C@H](CCC)NC(=O)[C@H]([C@@H](C)CC)NC(=O)[C@@H]2C[C@@H](O)CN2C(=O)[C@@H]2CCCN2C(=O)[C@H](Cc2ccccc2)NC(=O)[C@H](Cc2ccc(O)cc2)NC(=O)[C@H](CCC(N)=O)NC(=O)[C@H](CCCNC(=N)N)NC1=O` [UPAR-300, Pent-[Hcy-Arg-Gln-Tyr-Phe-Pro-Hyp-Ile-Nva-Cys]-NH2] (Pentanoyl-[hCys]RQYFP[Hyp]I[Nva]C-NH2; disulfide 1-10) had an IC50 in experiment [1] of 12.6 to 31.6 nM. For the same compound, the Kd on human uPAR (uPAR-Fc) was 1.58 to 10 nM.
In the same order, the values of `CCCCC(=O)N[C@H]1CSSC[C@@H](C(N)=O)NC(=O)[C@H](CCC)NC(=O)[C@H]([C@@H](C)CC)NC(=O)[C@@H]2C[C@@H](O)CN2C(=O)[C@H](CC(C)C)N(C)C(=O)[C@H](Cc2ccccc2)NC(=O)[C@H](Cc2ccc(O)cc2)NC(=O)[C@H](CCC(N)=O)NC(=O)[C@H](CCCNC(=N)N)NC1=O` [UPAR-302, Pent-[Cys-Arg-Gln-Tyr-Phe-Nml-Hyp-Ile-Nva-Cys]-NH2] (Pentanoyl-CRQYF[NMeL][Hyp]I[Nva]C-NH2; disulfide 1-10) are 12.6 to 31.6 nM and 1.58 to 10 nM.
The corresponding values for `CCCCOC(=O)N[C@H]1CSSC[C@@H](C(N)=O)NC(=O)[C@H](CCC)NC(=O)[C@H]([C@@H](C)CC)NC(=O)[C@@H]2C[C@@H](O)CN2C(=O)[C@@H]2C[C@H](F)CN2C(=O)[C@H](Cc2ccc(Cl)cc2)NC(=O)[C@H](Cc2ccc(O)cc2)NC(=O)[C@H](CCCCNC(=O)CN2CCN(CC(=O)O)CCN(CC(=O)O)CCN(CC(=O)O)CC2)NC(=O)[C@H](CCCNC(N)=O)NC1=O` [UPAR-304, Butoc-[Cys-Cit-Lys(DOTA)-Tyr-Pcf-4Cfp-Hyp-Ile-Nva-Cys]-NH2] (Butoxycarbonyl-C[Cit]K(DOTA)Y[Phe(4-Cl)][Pro(cis-4-F)][Hyp]I[Nva]C-NH2; disulfide 1-10) are at most 10 nM and below 1.58 nM.
In the same order, the values of `CC[C@H](C)[C@@H]1NC(=O)[C@H]2CCCN2C(=O)[C@@H]2CCCN2C(=O)[C@H](Cc2ccccc2)NC(=O)[C@H](Cc2ccc(O)cc2)NC(=O)[C@H](CCC(N)=O)NC(=O)[C@H](CCCNC(N)=O)NC(=O)[C@@H](NC(=O)CCC(C)C)CSSC[C@@H](C(N)=O)NC(=O)[C@H](CC(C)C)NC1=O` [UPAR-305, iHex-[Cys-Cit-Gln-Tyr-Phe-Pro-pro-Ile-Leu-Cys]-NH2] ({Pentanoyl(4-Me)}-C[Cit]QYFP[dP]ILC-NH2; disulfide 1-10) are at least 126 nM and above 100 nM.
In the case of `CC[C@H](C)[C@@H]1NC(=O)[C@@H]2C[C@H](F)CN2C(=O)[C@@H]2CCCN2C(=O)[C@H](Cc2ccccc2)NC(=O)[C@H](Cc2ccc(O)cc2)NC(=O)[C@H](CCC(N)=O)NC(=O)[C@H](CCCNC(N)=O)NC(=O)[C@@H](NC(=O)CCC(C)C)CSSC[C@@H](C(N)=O)NC(=O)[C@H](CC(C)C)NC1=O` [UPAR-307, iHex-[Cys-Cit-Gln-Tyr-Phe-Pro-4Cfp-Ile-Leu-Cys]-NH2] ({Pentanoyl(4-Me)}-C[Cit]QYFP[Pro(cis-4-F)]ILC-NH2; disulfide 1-10), in experiment [1], the IC50 was at most 10 nM. Besides, the Kd on human uPAR (uPAR-Fc) is below 1.58 nM.
In the same order, the values of `CCCCC(=O)N[C@H]1CSSC[C@@H](C(N)=O)NC(=O)[C@H](CCC)NC(=O)[C@H]([C@@H](C)CC)NC(=O)[C@@H]2C[C@@H](O)CN2C(=O)[C@@H]2CCCN2C(=O)[C@H](Cc2c[nH]c3ccccc23)NC(=O)[C@H](Cc2ccc(O)cc2)NC(=O)[C@H](CCC(N)=O)NC(=O)[C@H](CCCNC(=N)N)NC1=O` [UPAR-308, Pent-[Cys-Arg-Gln-Tyr-Trp-Pro-Hyp-Ile-Nva-Cys]-NH2] (Pentanoyl-CRQYWP[Hyp]I[Nva]C-NH2; disulfide 1-10) are at most 10 nM and 1.58 to 10 nM.
The corresponding values for `CCCCC(=O)N[C@H]1CSSC[C@@H](C(N)=O)NC(=O)[C@H](CCC)NC(=O)[C@H]([C@@H](C)CC)NC(=O)[C@@H]2C[C@@H](O)CN2C(=O)[C@@H]2CCCN2C(=O)[C@H](Cc2ccccc2)NC(=O)[C@H](Cc2ccc(O)cc2)NC(=O)[C@H](CCC(N)=O)NC(=O)[C@H](CCCNC(N)=O)NC1=O` [UPAR-309, Pent-[Cys-Cit-Gln-Tyr-Phe-Pro-Hyp-Ile-Nva-Cys]-NHz] (Pentanoyl-C[Cit]QYFP[Hyp]I[Nva]C-NH2; disulfide 1-10) are at most 10 nM and below 1.58 nM.
The corresponding values for `CC[C@H](C)[C@@H]1NC(=O)[C@@H](C)NC(=O)[C@@H]2CCCN2C(=O)[C@H](Cc2cccc3ccccc23)NC(=O)[C@H](Cc2ccc(O)cc2)NC(=O)[C@H](CCC(N)=O)NC(=O)[C@H](CCCNC(N)=O)NC(=O)[C@@H](NC(=O)CCC(C)C)CSSC[C@@H](C(N)=O)NC(=O)[C@H](CC(C)C)NC1=O` [UPAR-310, iHex-[Cys-Cit-Gln-Tyr-1Ni-Pro-ala-Ile-Leu-Cys]-NH2] ({Pentanoyl(4-Me)}-C[Cit]QY[1Nal]P[dA]ILC-NH2; disulfide 1-10) are at most 10 nM and below 1.58 nM.
Regarding `CC[C@H](C)[C@@H]1NC(=O)[C@H](C)NC(=O)[C@@H]2CCCN2C(=O)[C@H](Cc2ccccc2)NC(=O)[C@H](Cc2ccc(O)cc2)NC(=O)[C@H](CCSC)NC(=O)[C@H](CCCNC(=N)N)NC(=O)[C@@H](NC(=O)[C@H](CC(C)C)NC(=O)[C@H](CC(=O)O)NC(=O)[C@@H](N)CCSC)CSSC[C@@H](C(N)=O)NC(=O)[C@H](CC(C)C)NC1=O` [UPAR-312, H-Met-Asp-Leu-[Cys-Arg-Met-Tyr-Phe-Pro-Ala-Ile-Leu-Cys]-NH2] (H-MDLCRMYFPAILC-NH2; disulfide 4-13), in experiment [1], the IC50 was at most 10 nM. Besides, the Kd on human uPAR (uPAR-Fc) is 1.58 to 10 nM.
In the same order, the values of `CCCCC(=O)N[C@H]1CSSC[C@@H](C(N)=O)NC(=O)[C@H](CCC)NC(=O)[C@H]([C@@H](C)CC)NC(=O)[C@@H]2C[C@@H](N)CN2C(=O)[C@@H]2CCCN2C(=O)[C@H](Cc2ccccc2)NC(=O)[C@H](Cc2ccc(O)cc2)NC(=O)[C@H](CCCNC(=N)N)NC(=O)[C@H](CCCNC(=N)N)NC1=O` [UPAR-313, Pent-[Cys-Arg-Arg-Tyr-Phe-Pro-Tap-Ile-Nva-Cys]-NH2] (Pentanoyl-CRRYFP[Pro(4R-NH2)]I[Nva]C-NH2; disulfide 1-10) are at most 10 nM and below 1.58 nM.
In the same order, the values of `CC[C@H](C)[C@@H]1NC(=O)[C@@H](C)NC(=O)[C@@H]2CCCN2C(=O)[C@H](Cc2ccccc2)NC(=O)[C@H](Cc2ccc(N)cc2)NC(=O)[C@H](CCC(N)=O)NC(=O)[C@H](CCCNC(N)=O)NC(=O)[C@@H](NC(=O)CCC(C)C)CSSC[C@@H](C(N)=O)NC(=O)[C@H](CC(C)C)NC1=O` [UPAR-314, iHex-[Cys-Cit-Gln-Aph-Phe-Pro-ala-Ile-Leu-Cys]-NH2] ({Pentanoyl(4-Me)}-C[Cit]Q[Phe(4-NH2)]FP[dA]ILC-NH2; disulfide 1-10) are at most 10 nM and below 1.58 nM.
`CCCCC(=O)N[C@H]1CSSC[C@@H](C(N)=O)NC(=O)[C@H](CCC)NC(=O)[C@H]([C@@H](C)CC)NC(=O)[C@@H]2C[C@@H](O)CN2C(=O)[C@@H]2CCCN2C(=O)[C@H](Cc2ccc(Cl)cc2Cl)NC(=O)[C@H](Cc2ccc(O)cc2)NC(=O)[C@H](CCCCNC(=O)CN2CCN(CC(=O)O)CCN(CC(=O)O)CCN(CC(=O)O)CC2)NC(=O)[C@H](CCCNC(N)=O)NC1=O` [UPAR-315, Pent-[Cys-Cit-Lys(DOTA)-Tyr-Egm-Pro-Hyp-Ile-Nva-Cys]-NHz] (Pentanoyl-C[Cit]K(DOTA)Y[Phe(2,4-Cl2)]P[Hyp]I[Nva]C-NH2; disulfide 1-10) showed an IC50 in experiment [1] of at most 10 nM. The Kd on human uPAR (uPAR-Fc) is below 1.58 nM.
